Data: PubChem BioAssay AID1963834 (Molecular Pharmacology Branch, DTP, NCI, 2024)
pIC50: −log10 of the molar value. Where “and” joins values, the source holds several entries; their conditions need not be identical. Identical values can stand only once.

Tested on: 873145-292-R-J1-PDC complex spheroid viability
Assay: Anticancer human tumor 873145-292-R-J1-PDC patient-derived renal clear cell carcinoma cell line growth inhibition [POLQ]
Conditions: for viability, T/C: stronger effect = lower value; for pIC50: curve of compound
Protocol: Multicellular complex tumor spheroid response to Polymerase (POL) inhibitors (novobiocin, ART-558, RP6685) in combination with a variety of drugs and investigational agents in selected tumor cell lines
The POL inhibitors (novobiocin, ART-558, and RP6685) were evaluated both individually and in combination with standard of care and investigational anticancer small molecules within a complex spheroid model of solid tumors. . Complex spheroids include a stromal component modeled by human endothelial cells (HUVEC) and fibroblasts modeled by human mesenchymal stem cells (MSCs). The concentration ranges selected for each drug and investigational agent were based upon clinically achievable concentrations if the clinical Cmax of the agent was known.
Compounds. The drugs and investigational agents: novobiocin (NSC847541), ART-558 (NSC835418), RP-6685 (NSC848927), peposertib (NSC802822), ceralasertib (NSC780249), elimusertib (NSC800525), camonsertib (NSC841442), AZD-1390 (NSC803789), olaparib (NSC753686), talazoparib (NSC767125), rucaparib (NSC756644), sotorasib (NSC818433), MRTX-1133 (NSC836407), SN-38 (NSC673596), topotecan (NSC609699), epotoside (NSC141540), doxorubicin (NSC123127), gemcitabine (NSC613327), 5-fluorouracil (NSC19893), paclitaxel (NSC125973), vemurafenib (NSC761431), MSA-2 (NSC828583), SN-011 (NSC837082), adavosertib (NSC754352), prexasertib (NSC758257), carboplatin (NSC241240) and oxaliplatin (NSC266046), were obtained from the National Cancer Institute (NCI) Developmental Therapeutics Program Chemical Repository (21). The FDA-approved anticancer drug set is available from the Developmental Therapeutics Program at https://dtp.cancer.gov/organization/dscb/obtaining/. […] The stock solutions were prepared in dimethyl sulfoxide (DMSO, Sigma-Aldrich, St. Louis, MO, cat. D2650), except for the platinum compounds which were prepared in saline (Quality Biological, Gaithersburg, MD, cat. 114-055-101), at 800-fold the tested concentration and stored at -70 degrees C prior to their use. All drugs and investigational agents were tested over a range starting from a high concentration at or near the clinical Cmax and decreasing in half-log increments. If the clinical Cmax for an agent had not been determined, the highest concentration tested was 10 microM, except for SN-38, which was tested at a high concentration of 1 microM.
Cell Culture. All cells were maintained in an incubator at 37 degrees C and 5% CO2 with 95% humidity. The PDC lines were cultured according to standard operating procedures established by the NCI PDMR (https://pdmr.cancer.gov). Table 3 of the manuscript, lists the cell lines along with the number of the three cell types plated to form the mct-spheroids and media for tumor cell growth. After thawing, all PDC lines, except 997537-175-T-J1-PDC and 415267-285-R-J2-PDC, were cultured in Matrigel-coated flasks prepared with a working solution of 1X Ham's F-12 nutrient mix, without supplementation (Thermo Fisher Scientific, cat. 11765054), 100 U/mL penicillin-streptomycin (Thermo Fisher Scientific, cat. 15140122), and 2.5% Matrigel (Corning Inc., Corning, NY, cat. 354248) for the first three passages. The two PDC lines 997537-175-T-J1-PDC and 415267-285-R-J2-PDC were cultured on uncoated flasks. The 857933-349-R-J2-PDC line was cultured in 6C/Colon 1B media containing advanced DMEM/F-12 (Thermo Fisher Scientific, cat. 12634028), 10 mM HEPES (Thermo Fisher Scientific, cat. 15630080), 1X GlutaMAX supplement (Thermo Fisher Scientific, cat. 35050061), 0.1 mg/mL primocin (InvivoGen, San Diego, CA, cat. ant-pm-2), 10% defined fetal bovine serum, heat inactivated (HyClone Laboratories Inc., Logan, UT, cat. SH30070.03HI), 50% L-WRN conditioned media (ATCC, cat. CRL-3276), 1.25 mM N-Acetyl-L-cysteine (Sigma-Aldrich, cat. A9165), 10 mM nicotinamide (Sigma-Aldrich, cat. N0636), 1X B-27 supplement (Thermo Fisher Scientific, cat. 17504044), 1X N-2 supplement (Thermo Fisher Scientific, cat. […]
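Note: spheroids exposed to compounds for 7 days before viability readout.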
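Throughout, for viability, T/C: luminescence signal used as surrogate for viable cell content; 100% = DMSO vehicle control viability.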

| SMILES | viability, T/C (compound 0.0316 µM) | viability, T/C (compound 0.1 µM) | viability, T/C (compound 0.316 µM) | viability, T/C (compound 1 µM) | viability, T/C (compound 3.16 µM) | viability, T/C (compound 10 µM) | pIC50 | viability, T/C (compound 0.00316 µM) | viability, T/C (compound 0.01 µM) | viability, T/C (compound 0.00949 µM) | viability, T/C (compound 0.03 µM) | viability, T/C (compound 0.0949 µM) | viability, T/C (compound 0.3 µM) | viability, T/C (compound 0.949 µM) | viability, T/C (compound 3 µM) | viability, T/C (compound 0.000316 µM) | viability, T/C (compound 0.001 µM) |
| --- | --- | --- | --- | --- | --- | --- | --- | --- | --- | --- | --- | --- | --- | --- | --- | --- | --- |
| C#Cc1c(F)ccc2cc(O)cc(-c3ncc4c(N5CC6CCC(C5)N6)nc(OCC56CCCN5CC(F)C6)nc4c3F)c12 (stereo unspecified) | 99.2% and 106% and 107% | 104% and 107% and 91.8% | 90.8% and 96.4% and 88.5% | 89% and 91.7% and 89.9% | 91.4% and 107% and 86% | 85% and 95.8% and 82.9% | < 5.00 | – | – | – | – | – | – | – | – | – | – |
| C=CC(=O)N1CCN(c2nc(=O)n(-c3c(C)ccnc3C(C)C)c3nc(-c4c(O)cccc4F)c(F)cc23)C(C)C1 (stereo unspecified) | 98.3% and 103% and 94.9% | 99.5% and 99.4% and 98.3% | 107% and 125% and 109% | 118% and 113% (2×) | 137% and 134% and 116% | 121% and 145% and 124% | < 5.00 | – | – | – | – | – | – | – | – | – | – |
| C=CCn1c(=O)c2cnc(Nc3ccc(N4CCN(C)CC4)cc3)nc2n1-c1cccc(C(C)(C)O)n1 | 104% and 92.5% and 97.3% | 101% and 97.8% and 97.9% | 76.4% and 84.9% and 85.7% | 74.7% and 77.3% and 80% | – | – | < 6.00 | 106% and 97.8% and 112% | 95.9% and 105% and 90.5% | – | – | – | – | – | – | – | – |
| CC(=O)O[C@H]1C(=O)[C@@]2(C)[C@H]([C@H](OC(=O)c3ccccc3)[C@]3(O)C[C@H](OC(=O)[C@H](O)[C@@H](NC(=O)c4ccccc4)c4ccccc4)C(C)=C1C3(C)C)[C@]1(OC(C)=O)CO[C@@H]1C[C@@H]2O | – | – | – | – | – | – | < 5.52 | – | – | 79.4% and 83.2% and 84.7% | 83.6% and 72.1% and 70.3% | 74% and 72.5% and 60.7% | 70.2% and 65.1% and 65.8% | 69.9% and 66.2% and 67.9% | 63.5% and 72.9% and 57.8% | – | – |
| CC(C)n1c(=O)n(C)c2cnc3cc(F)c(-c4ccc(OCCCN5CCCCC5)nc4)cc3c21 | 97.8% and 99.3% and 112% | 103% and 100% and 93.3% | 94% and 101% and 112% | 92.8% and 108% and 100% | 94.8% (2×) and 96.1% | 77.7% and 95.8% and 91.3% | < 5.00 | – | – | – | – | – | – | – | – | – | – |
| CC1COCCN1c1cc(-c2ccnn2C)c2ccnc(-c3ccn[nH]3)c2n1 (stereo unspecified) | 88.9% and 83.1% and 97% | 77.3% and 74.3% and 90% | 67.5% and 67.3% and 68.5% | 51.8% and 50.8% and 56.1% | 40% and 41.9% and 52.3% | 39.3% and 41.4% and 57.8% | 5.92 and < 5.00 | – | – | – | – | – | – | – | – | – | – |
| CC1COCCN1c1cc(C2(O)CC3CCC(C2)O3)c2cnn(-c3ccn[nH]3)c2n1 (stereo unspecified) | 86.7% and 86.2% and 97.9% | 84.8% and 72% and 82.1% | 56.8% and 49.1% and 60.9% | 48.6% and 43% and 55.3% | 40% and 39.9% and 48.1% | 31.9% and 32.5% and 41% | 6.13 and 6.41 and 5.74 | – | – | – | – | – | – | – | – | – | – |
| CC1COCCN1c1cc(C2(S(C)(=N)=O)CC2)nc(-c2ccnc3[nH]ccc23)n1 (stereo unspecified) | 91.7% and 96% and 106% | 97.2% and 92.7% and 96.5% | 113% and 91.9% and 99.5% | 88.5% and 94.4% and 104% | 81.9% and 85.5% and 81.5% | 58% and 64.2% and 54.1% | < 5.00 | – | – | – | – | – | – | – | – | – | – |
| CCCS(=O)(=O)Nc1ccc(F)c(C(=O)c2c[nH]c3ncc(-c4ccc(Cl)cc4)cc23)c1F | 113% and 104% and 102% | 96.8% and 107% and 99.6% | 109% and 103% and 107% | 95.2% and 107% and 104% | 109% and 98.7% and 92.9% | 76.7% and 72.3% and 60.6% | < 5.00 | – | – | – | – | – | – | – | – | – | – |
| CC[C@@]1(O)C(=O)OCc2c1cc1n(c2=O)Cc2cc3c(CN(C)C)c(O)ccc3nc2-1 | 84.9% and 95.7% and 77.4% | 59.5% and 63.6% and 48.9% | – | – | – | – | < 7.00 and 7.02 | 93.4% and 95.2% and 101% | 92.8% and 107% and 103% | – | – | – | – | – | – | 96.5% and 108% and 99.8% | 94.6% and 99.2% and 92.7% |
| CCc1c2c(nc3ccc(O)cc13)-c1cc3c(c(=O)n1C2)COC(=O)[C@]3(O)CC | 50.6% and 60% and 54.1% | 49.2% and 52.5% and 41.1% | 37.8% and 45.3% and 34.1% | 30.3% and 37.3% and 29.6% | – | – | 7.21 and 7.00 and 7.32 | 94.8% and 105% and 94% | 77.7% and 88.3% and 80.5% | – | – | – | – | – | – | – | – |
| CCc1cc2c(N3CCc4c(cc(Cn5ccnc5)cc4-c4cn(C)nc4C(F)(F)F)C3=O)cc(C)nc2c(OC)n1 | 95.3% and 101% and 104% | 96.6% and 94.7% and 102% | 88.5% and 93.9% and 90.2% | 94.2% and 85.1% and 80.9% | 85.1% and 79.1% and 86.5% | 80.2% and 85.1% and 81% | < 5.00 | – | – | – | – | – | – | – | – | – | – |
| CCc1cc2c(N3CCc4c(cc(Cn5ccnc5)cc4-c4cn(C)nc4C(F)(F)F)C3=O)ccnc2c(OC)n1 | 107% and 99% and 101% | 89.9% and 92.2% and 96.8% | 89.1% and 97.3% and 84.2% | 92.1% and 87.7% and 87.1% | 86.4% and 98% and 86.1% | 75.7% and 91.9% and 81.5% | < 5.00 | – | – | – | – | – | – | – | – | – | – |
